Measurements as given in article PMC10961714, “Novel chemotype NLRP3 inhibitors that target the CRID3-binding pocket with high potency” (Life Science Alliance, 2024).

Assays:
NLRP3 = target: T1, NLRP3 (Homo sapiens, UniProt Q96P20); assay: NanoBRET target engagement (tracer displacement) in live HEK293 cells; type: cell-based
T1 construct: full-length NLRP3-Nanoluc fusion protein

carbonic anhydrase II = target: T2, carbonic anhydrase II (Homo sapiens, UniProt P00918); assay: p-NPA esterase activity assay with […] compound; type: biochemical
T2 construct: gene CA2; CA II (C6165, Sigma-Aldrich)

carbonic anhydrase I = target: T3, carbonic anhydrase I (Homo sapiens, UniProt P00915); assay: p-NPA esterase activity assay with […] compound; type: biochemical
T3 construct: gene CA1; recombinant carbonic anhydrase I (C4396, Sigma-Aldrich)
T3 sequence (P00915 2-261): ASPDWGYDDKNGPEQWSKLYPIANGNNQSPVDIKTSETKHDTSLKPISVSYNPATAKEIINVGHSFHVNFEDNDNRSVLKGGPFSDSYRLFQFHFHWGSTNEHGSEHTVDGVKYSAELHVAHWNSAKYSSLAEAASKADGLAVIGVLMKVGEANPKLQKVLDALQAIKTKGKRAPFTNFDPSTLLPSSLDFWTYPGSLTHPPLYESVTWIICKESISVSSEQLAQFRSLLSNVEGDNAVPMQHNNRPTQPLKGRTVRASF

T1 sequence (Q96P20 whole entry, the tested form may be a part): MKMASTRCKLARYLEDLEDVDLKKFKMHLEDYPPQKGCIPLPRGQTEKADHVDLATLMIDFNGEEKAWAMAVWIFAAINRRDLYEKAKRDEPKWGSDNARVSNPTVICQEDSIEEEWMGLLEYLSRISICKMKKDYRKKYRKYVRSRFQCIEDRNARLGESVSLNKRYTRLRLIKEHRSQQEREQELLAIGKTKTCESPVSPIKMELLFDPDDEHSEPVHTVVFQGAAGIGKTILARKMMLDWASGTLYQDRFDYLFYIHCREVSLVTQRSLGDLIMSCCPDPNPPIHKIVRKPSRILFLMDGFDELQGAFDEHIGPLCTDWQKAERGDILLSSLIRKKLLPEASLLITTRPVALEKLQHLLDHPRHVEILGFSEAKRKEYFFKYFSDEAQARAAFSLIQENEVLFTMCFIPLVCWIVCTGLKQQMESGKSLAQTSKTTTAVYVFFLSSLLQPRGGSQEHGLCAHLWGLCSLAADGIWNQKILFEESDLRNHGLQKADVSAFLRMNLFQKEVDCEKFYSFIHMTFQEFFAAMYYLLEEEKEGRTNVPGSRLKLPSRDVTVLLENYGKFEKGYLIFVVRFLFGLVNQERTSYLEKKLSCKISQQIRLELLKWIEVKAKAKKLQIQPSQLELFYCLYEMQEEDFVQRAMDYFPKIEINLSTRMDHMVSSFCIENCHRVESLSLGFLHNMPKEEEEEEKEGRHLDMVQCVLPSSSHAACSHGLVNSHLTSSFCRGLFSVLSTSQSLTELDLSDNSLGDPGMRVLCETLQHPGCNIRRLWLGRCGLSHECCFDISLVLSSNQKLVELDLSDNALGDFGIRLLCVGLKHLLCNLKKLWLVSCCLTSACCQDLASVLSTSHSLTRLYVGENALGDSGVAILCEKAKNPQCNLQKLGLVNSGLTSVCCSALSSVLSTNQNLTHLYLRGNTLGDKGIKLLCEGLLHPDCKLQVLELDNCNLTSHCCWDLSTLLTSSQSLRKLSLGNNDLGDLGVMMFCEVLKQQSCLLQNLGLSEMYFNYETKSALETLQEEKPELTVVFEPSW

Compound | IC50 (NLRP3) [nM] | p-NPA esterase activity assay with 100 μM compound (carbonic anhydrase II) | p-NPA esterase activity assay with 100 μM compound (carbonic anhydrase I)
CC(C)(O)c1nn(CC(=O)Nc2ccncn2)c(=O)c2cc3sc(Cl)cc3n12 [NIC-11] | 212 |  | 
CC(C)(O)c1coc(S(=O)(=O)NC(=O)Nc2c3c(cc4c2CCC4)CCC3)c1 [CRID3] |  | We confirmed this off-target activity of CRID3 in our studies | observed significant inhibition of the related enzyme carbonic anhydrase I as well
CC(C)c1nn(CC(=O)N[C@@H]2CCCN(CC3CC3)C2)c(=O)c2cc3sc(Cl)cc3n12 [NIC-12] | 131 |  | 
